The experiment deals with T1, α-glucosidase—Saccharomyces cerevisiae recombinant (Saccharomyces cerevisiae, UniProt P53341).
T1 construct: purchased Sigma G0660
Briefly: alpha glucosidase inhibitory activity assay (release of p-nitrophenol from p-nitrophenyl-α-D-glucoside). The class given is biochemical. Particulars: end concentration in the well 0.8 mM; 'should cause about 50% inhibition'. How it is done:
[drawing 1] wherein the α-glucosidase activity is measured by the release of p-nitrophenol, and as further set forth in Example 1.
Materials were tested for alpha glucosidase inhibitory activity as follows:
Materials: Standard laboratory equipment, 96 well half area plates with UV transparent bottom (Costar, 3679), 8 channel multi pipette (20 to 200 μl), and spectrophotometer, Spectra Max Plus (Molecular Devices).
Reagents: • (a) Distilled water • (b) Potassium dihydrogen phosphate • (c) Dimethylsulfoxide (Acros, 12779) • (d) α-glucosidase—Saccharomyces cerevisiae recombinant (min. 125 U/mg protein) (Sigma, G0660) • (e) p-nitrophenol-α-D-glucopyranoside (Sigma, N1377) • (f) Australine hydrochloride, castanospermum australe (Calbiochem, #189422) (reference inhibitor)
60 μl of reference inhibitor is needed per well)
Stock solution of the test sample is prepared using 142 mM potassium phosphate buffer (solubility of test sample can be improved using DMSO/potassium phosphate mixtures. The end concentration of DMSO should not exceed 1% v/v which corresponds to 1.66% DMSO in the sample stock solution. […]
Pipette with 8 channel multi-pipette 20 μl of the enzyme and mix well. […] The absorbance was measured at […].
For each concentration of potential inhibitor, the initial reaction velocity is calculated, being the initial slope of the absorbance vs. time data. […]

SMILES strings stand for the structures.

T1 sequence (P53341 whole entry): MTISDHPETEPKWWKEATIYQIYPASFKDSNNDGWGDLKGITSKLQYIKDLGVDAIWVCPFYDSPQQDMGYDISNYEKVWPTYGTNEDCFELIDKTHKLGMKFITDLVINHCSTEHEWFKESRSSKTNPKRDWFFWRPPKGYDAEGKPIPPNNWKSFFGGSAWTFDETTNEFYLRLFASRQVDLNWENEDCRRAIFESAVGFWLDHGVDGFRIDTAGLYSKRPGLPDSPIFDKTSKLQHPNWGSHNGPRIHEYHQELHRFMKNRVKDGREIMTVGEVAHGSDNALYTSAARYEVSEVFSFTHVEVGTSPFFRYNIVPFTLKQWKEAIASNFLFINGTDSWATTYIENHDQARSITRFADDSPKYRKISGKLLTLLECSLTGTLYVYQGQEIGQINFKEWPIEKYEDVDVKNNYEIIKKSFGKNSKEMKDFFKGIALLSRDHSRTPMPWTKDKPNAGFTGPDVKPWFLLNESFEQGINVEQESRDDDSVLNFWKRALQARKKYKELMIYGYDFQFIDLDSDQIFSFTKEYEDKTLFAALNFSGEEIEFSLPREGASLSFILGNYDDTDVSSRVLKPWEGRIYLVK

`Cl.OC[C@@H]1[C@@H](O)[C@H](O)[C@H]2[C@@H](O)CCN21` [Australine HCl, Australine hydrochloride]: the “inhibition in the well (reference inhibitor)” value is “about 50%”.

The record behind these values is patent US9072717B2, “Cosmetic compositions containing alpha glucosidase inhibitors and methods of use” (ELC Management LLC, priority 2007, dated 2015).
